Experimental data from patent US10195190B2, “Local delivery forms of acriflavine for treating tumors” (The Johns Hopkins University, priority 2015, dated 2019).
pIC50: −log10 of the molar value.

What was measured:
[1] = system: 9 L gliosarcoma; assay: Survival of F344 rats intracranially implanted with 9 L gliosarcoma; format: in vivo, rat; conditions: for median survival: systemic treatment (ACF 5 mg/kg/daily from Day 0 or Day 5; oral temozolomide 50 mg/kg/day Days 5-9)
[2] = system: 9 L rat gliosarcoma cells; assay: Acriflavine cytotoxicity in vitro, CCK-8 assay, 9 L cells; format: cell-based; conditions: 9 L rat glioma cells, 24 h co-incubation, read-out: IC50 concentration, cell viability
Method: (§1) The cytotoxicity of ACF was analyzed in rodent 9 L gliosarcoma (obtained from the Brain Tumor Research Center, University of California at San Francisco) and F98 glioma (a gift from R. Barth, Ohio State University) cell lines as well as in commercial and primary human glioblastoma cell lines, U87 (ATCC) and GB1A, respectively. The cells were plated in 96-well plates at a density of 4×10^3 cells/well, cultured for 24 h and treated with ACF (concentration range of 0.2 μM-25 μM). After co-incubation with ACF in medium for 24 h, cell growth was assessed using a CCK-8 assay (Dojindo, Kumamoto, Japan) according to manufacturers' protocol. Data are shown as mean+/−SEM and the inhibitory concentration 50% (IC50)+95% confidence interval and R^2 are reported.
(§2) The following concentrations of acriflavine: 0.0249 μM, 0.1245 μM, 0.249 μM, 2.5 μM, 25 μM, 50 μM, 500 μM, and 1000 μM were tested. CCK-8 assay was added to the wells, and the optical density was read at 450 nm by a microplate reader.

[3] = system: glioma cell lines (9 L gliosarcoma, F98 glioma, U87, GB1A); assay: Acriflavine cytotoxicity in vitro, CCK-8 assay, all glioma cell lines tested; format: cell-based, rodent and human; conditions: 24 h
Method: as §1, §2

Row | Molecule | median survival [1] | survival benefit compared to the control ([1]; systemic ACF started on Day 0 or Day 5) | pIC50 [2] | inhibition of proliferation [3]
1 | Cn1nnc2c(C(N)=O)ncn2c1=O [temozolomide, Temozolomide] | 28 days |  |  | 
2 | 3,6-diamino-10-methylacridinium chloride mixed with 3,6-acridinediamine [ACF] | 14 days | no benefit in survival | 5.97 | inhibited proliferation in all glioma cell lines tested in a dose-dependent manner
